The record followed here is patent US8541461B2 (Astex Therapeutics Limited, priority 2005, dated 2013).

pIC50: −log10 of the molar value.

The experiment deals with T1, PKB-PIF fusion protein (protein kinase B) (Homo sapiens, UniProt P31751).
T1 construct: PIF (fusion partner); made in house
T1 sequence (P31751 with tags, fused parts or gaps limits assumed): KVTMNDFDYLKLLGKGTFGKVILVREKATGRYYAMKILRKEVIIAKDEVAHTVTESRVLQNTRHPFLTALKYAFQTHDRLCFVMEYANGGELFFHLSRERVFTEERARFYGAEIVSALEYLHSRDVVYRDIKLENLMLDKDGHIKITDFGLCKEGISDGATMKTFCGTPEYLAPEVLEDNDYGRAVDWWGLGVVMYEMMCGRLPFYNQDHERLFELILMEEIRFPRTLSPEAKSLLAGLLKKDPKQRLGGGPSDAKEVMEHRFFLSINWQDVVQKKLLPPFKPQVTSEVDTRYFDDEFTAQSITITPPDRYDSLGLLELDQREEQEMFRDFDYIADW
Description: Measurement of PKB kinase inhibitory activity (IC50). As to conditions: 0.6 nM enzyme, 30 μM ATP/γ33P-ATP, 25 μM AKTide-2T substrate; read-out: PKB IC50. Type of experiment: biochemical. Here is the method: The reaction is allowed to proceed for 20 minutes before addition of excess orthophosphoric acid to quench activity. The reaction mixture is transferred to a phosphocellulose filter plate where the peptide binds and the unused ATP is washed away. After washing, scintillant is added and the incorporated activity measured by scintillation counting.
Take `CNCC(c1ccc(Cl)cc1)c1ccc(-c2cn[nH]c2)cc1` (stereo in doubt) [Example 22, {2-(4-Chloro-phenyl)-2-[4-(1H-pyrazol-4-yl)-phenyl]-ethyl}-methyl-amine (R)]: the pIC50 is above 6.00. Consider `N#CC(Cc1ccccc1)c1cccc(-c2cn[nH]c2)c1` (centres unmarked) [Example 2, 3-Phenyl-2-[3-(1H-pyrazol-4-yl)-phenyl]-propionitrile], for which the pIC50 is above 5.30. Take `Cc1n[nH]c(C)c1-c1ccc(C(CN)c2ccccc2)cc1` (centres unmarked) [Example 3, 2-[4-(3,5-Dimethyl-1H-pyrazol-4-yl)-phenyl]-2-phenyl-ethylamine]: the pIC50 was above 5.30. As for `NCC(Cc1ccccc1)c1cccc(-c2cn[nH]c2)c1` (centres unmarked) [Example 6, 3-Phenyl-2-[3-(1H-pyrazol-4-yl)-phenyl]-propylamine], the pIC50 is above 5.30.

In the case of `CNCCC(c1ccc(Cl)cc1)c1ccc(-c2cn[nH]c2)cc1` (centres unmarked) [Example 8, {3-(4-Chloro-phenyl)-3-[4-(1H-pyrazol-4-yl)-phenyl]-propyl}-methyl-amine], the pIC50 is above 6.00. Regarding `CNCCC(c1ccc(-c2cn[nH]c2)cc1)c1ccc(F)c(F)c1` (centres unmarked) [Example 9, {3-(3,4-Difluoro-phenyl)-3-[4-(1H-pyrazol-4-yl)-phenyl]-propyl}-methyl-amine], the negative-log IC50 (pIC50) is above 6.00.

As for `CNCCC(c1ccc(-c2cn[nH]c2)cc1)c1cccc(Cl)c1` (centres unmarked) [Example 10, {3-(3-Chloro-phenyl)-3-[4-(1H-pyrazol-4-yl)-phenyl]-propyl}-methyl-amine], the pIC50 is above 6.00. Consider `NC(=O)CC(c1ccc(Cl)cc1)c1ccc(-c2cn[nH]c2)cc1` (centres unmarked) [Example 11, 3-(4-Chloro-phenyl)-3-[4-(1H-pyrazol-4-yl)-phenyl]-propionamide], for which the pIC50 is above 5.30. For the compound `NCCC(c1ccc(Cl)cc1)c1ccc(-c2cn[nH]c2)cc1` (centres unmarked) [Example 12, 3-(4-Chloro-phenyl)-3-[4-(1H-pyrazol-4-yl)-phenyl]-propylamine], the pIC50 is above 6.00. Regarding `NCCC(c1ccc(-c2cn[nH]c2)cc1)c1ccc(Cl)c(Cl)c1` (centres unmarked) [Example 13, 3-(3,4-Dichloro-phenyl)-3-[4-(1H-pyrazol-4-yl)-phenyl]-propylamine], the pIC50 was above 6.00. On to `Clc1ccc(C2(c3ccc(-c4cn[nH]c4)cc3)CCNCC2)cc1` [Example 14, 4-(4-Chloro-phenyl)-4-[4-(1H-pyrazol-4-yl)-phenyl]-piperidine], for which the pIC50 is above 6.00. Turning to `COc1ccc(C2(c3ccc(-c4cn[nH]c4)cc3)CCNCC2)cc1` [Example 15, 4-(4-Methoxy-phenyl)-4-[4-(1H-pyrazol-4-yl)-phenyl]-piperidine], the pIC50 is above 6.00. As to `CN1CCC(c2ccc(Cl)cc2)(c2ccc(-c3cn[nH]c3)cc2)CC1` [Example 16, 4-(4-Chloro-phenyl)-1-methyl-4-[4-(1H-pyrazol-4-yl)-phenyl]-piperidine], the pIC50 was above 6.00. Turning to `c1ccc(C2(c3ccc(-c4cn[nH]c4)cc3)CCNCC2)cc1` [Example 17, 4-Phenyl-4-[4-(1H-pyrazol-4-yl)-phenyl]-piperidine], the pIC50 is above 6.00.

Regarding `Cc1n[nH]c(C)c1-c1ccc(C2(c3ccccc3)CCNCC2)cc1` [Example 18, 4-[4-(3,5-Dimethyl-1H-pyrazol-4-yl)-phenyl]-4-phenyl-piperidine], the pIC50 is above 5.30. Regarding `CN(C)CCC(c1ccc(-c2cn[nH]c2)cc1)c1ccccn1` (centres unmarked) [Example 19, Dimethyl-{3-[4-(1H-pyrazol-4-yl)-phenyl]-3-pyridin-2-yl-propyl}-amine], the pIC50 was above 5.30.

`CN(C)CC(c1ccc(Cl)cc1)c1ccc(-c2cn[nH]c2)cc1` (centres unmarked) [Example 20, {2-(4-Chloro-phenyl)-2-[4-(1H-pyrazol-4-yl)-phenyl]-ethyl}-dimethyl-amine]: the pIC50 was above 6.00. Regarding `CNCC(c1ccc(Cl)cc1)c1ccc(-c2cn[nH]c2)cc1` (centres unmarked) [Example 21, {2-(4-Chloro-phenyl)-2-[4-(1H-pyrazol-4-yl)-phenyl]-ethyl}-methyl-amine], the pIC50 was above 6.00. On to `Clc1ccc(C(CN2CCOCC2)c2ccc(-c3cn[nH]c3)cc2)cc1` (centres unmarked) [Example 24, 4-{2-(4-Chloro-phenyl)-2-[4-(1H-pyrazol-4-yl)-phenyl]-ethyl}-morpholine], for which the pIC50 is above 5.30. Consider `Clc1ccc(C(CN2CCCC2)c2ccc(-c3cn[nH]c3)cc2)cc1` (centres unmarked) [Example 25, 4-{4-[1-(4-Chloro-phenyl)-2-pyrrolidin-1-yl-ethyl]-phenyl}-1H-pyrazole], for which the pIC50 is above 6.00. Turning to `CC(C)NCC(c1ccc(Cl)cc1)c1ccc(-c2cn[nH]c2)cc1` (centres unmarked) [Example 26, {2-(4-Chloro-phenyl)-2-[4-(1H-pyrazol-4-yl)-phenyl]-ethyl}-isopropyl-amine], the negative logarithm of the IC50 (pIC50) is above 6.00. Take `CN(C)CC(c1ccccc1)c1ccc(-c2cn[nH]c2)cc1` (centres unmarked) [Example 27, Dimethyl-{2-phenyl-2-[4-(1H-pyrazol-4-yl)-phenyl]-ethyl}-amine]: the pIC50 is above 6.00. With `CN(C)CC(c1ccc(-c2cn[nH]c2)cc1)c1ccc(-c2cn[nH]c2)cc1` [Example 28, {2,2-Bis-[4-(1H-pyrazol-4-yl)-phenyl]-ethyl}-dimethyl-amine], the pIC50 was above 6.00. For `CNCC(c1ccc(-c2cn[nH]c2)cc1)c1ccc(-c2cn[nH]c2)cc1` [Example 29, {2,2-Bis-[4-(1H-pyrazol-4-yl)-phenyl]-ethyl}-methyl-amine], the pIC50 is above 6.00.

For the compound `NC(=O)C(c1ccc(Cl)cc1)c1ccc(-c2cn[nH]c2)cc1` (centres unmarked) [Example 32, 2-(4-Chloro-phenyl)-2-[4-(1H-pyrazol-4-yl)-phenyl]-acetamide], the pIC50 was above 5.30. In the case of `Clc1ccc(C(CN2CCNCC2)c2ccc(-c3cn[nH]c3)cc2)cc1` (centres unmarked) [Example 33, 1-{2-(4-Chloro-phenyl)-2-[4-(1H-pyrazol-4-yl)-phenyl]-ethyl}-piperazine], the pIC50 was above 6.00. On to `Clc1ccc(C(CN2CCCCC2)c2ccc(-c3cn[nH]c3)cc2)cc1` (centres unmarked) [Example 34, 1-{2-(4-Chloro-phenyl)-2-[4-(1H-pyrazol-4-yl)-phenyl]-ethyl}-piperidine], for which the pIC50 was above 6.00. Take `Clc1ccc(C(CN2CCC2)c2ccc(-c3cn[nH]c3)cc2)cc1` (centres unmarked) [Example 35, 4-{4-[2-Azetidin-1-yl-1-(4-chloro-phenyl)-ethyl]-phenyl}-1H-pyrazole]: the pIC50 is above 6.00. Consider `NC(Cc1ccc(-c2cn[nH]c2)cc1)c1ccccc1` (centres unmarked) [Example 36, 1-Phenyl-2-[4-(1H-pyrazol-4-yl)-phenyl]-ethylamine], for which the pIC50 was above 5.30. Turning to `CNC(=O)C(c1ccc(Cl)cc1)c1ccc(-c2cn[nH]c2)cc1` (centres unmarked) [Example 40, 2-(4-Chloro-phenyl)-N-methyl-2-[4-(1H-pyrazol-4-yl)-phenyl]-acetamide], the pIC50 was above 4.30. Turning to `CNC(=O)C(c1ccc(-c2cn[nH]c2)cc1)c1ccc(-c2cn[nH]c2)cc1` [Example 41, N-Methyl-2,2-bis-[4-(1H-pyrazol-4-yl)-phenyl]-acetamide], the pIC50 was above 4.30.

Turning to `Clc1ccc(C(CCN2CCCC2)c2ccc(-c3cn[nH]c3)cc2)cc1` (centres unmarked) [Example 50, 4-{4-[1-(4-Chloro-phenyl)-3-pyrrolidin-1-yl-propyl]-phenyl}-1H-pyrazole], the pIC50 was above 6.00. Turning to `Clc1ccc(C(CCN2CCC2)c2ccc(-c3cn[nH]c3)cc2)cc1` (centres unmarked) [Example 51, 4-{4-[3-Azetidin-1-yl-1-(4-chloro-phenyl)-propyl]-phenyl}-1H-pyrazole], the pIC50 was above 6.00. For `CNCCC(c1ccc(-c2cn[nH]c2)cc1)c1ccc(N(C)C)cc1` (centres unmarked) [Example 53, Dimethyl-(4-{3-methylamino-1-[4-(1H-pyrazol-4-yl)-phenyl]-propyl}-phenyl)-amine], the negative-log IC50 (pIC50) was above 5.30. As for `N#Cc1n[nH]cc1-c1ccc(C2(c3ccc(Cl)cc3)CCNCC2)cc1` [Example 55, 4-{4-[4-(4-Chloro-phenyl)-piperidin-4-yl]-phenyl}-1H-pyrazole-3-carbonitrile], the figure is above 5.30; as for `NCCC(c1ccc(Oc2ccccc2)cc1)c1ccc(-c2cn[nH]c2)cc1` (centres unmarked) [Example 56, 3-(4-Phenoxy-phenyl)-3-[4-(1H-pyrazol-4-yl)-phenyl]-propylamine], above 6.00; as for `Clc1ccc(C(c2ccc(-c3cn[nH]c3)cc2)N2CCNCC2)cc1` (centres unmarked) [Example 57, 1-{(4-Chloro-phenyl)-[4-(1H-pyrazol-4-yl)-phenyl]-methyl}-piperazine], above 6.00.

In the case of `CN1CCCN(C(c2ccccc2)c2ccc(-c3cn[nH]c3)cc2)CC1` (centres unmarked) [Example 58, 1-Methyl-4-{phenyl-[4-(1H-pyrazol-4-yl)-phenyl]-methyl}-[1,4]diazepane], the pIC50 was above 5.30. For `Clc1ccc(C(CCn2ccnc2)c2ccc(-c3cn[nH]c3)cc2)cc1` (centres unmarked) [Example 61, 4-{4-[1-(4-Chloro-phenyl)-3-imidazol-1-yl-propyl]-phenyl}-1H-pyrazole], the pIC50 was above 6.00.

`c1ccc(OC(CCn2ccnc2)c2ccc(-c3cn[nH]c3)cc2)cc1` (centres unmarked) [Example 62, 4-[4-(3-Imidazol-1-yl-1-phenoxy-propyl)-phenyl]-1H-pyrazole]: the pIC50 is above 4.30. For the compound `c1ccc(C(c2ccc(-c3cn[nH]c3)cc2)N2CCNCC2)cc1` (centres unmarked) [Example 64], the pIC50 was above 5.30. In the case of `CNCC(c1ccc(F)cc1)c1ccc(-c2cn[nH]c2)cc1` (centres unmarked) [Example 65, {2-(4-Fluoro-phenyl)-2-[4-(1H-pyrazol-4-yl)-phenyl]-ethyl}-methyl-amine], the pIC50 is above 6.00. Take `COCCCOc1ccc(C2(c3ccc(-c4cn[nH]c4)cc3)CCNCC2)cc1` [Example 68, 4-[4-(3-Methoxy-propoxy)-phenyl]-4-[4-(1H-pyrazol-4-yl)-phenyl]-piperidine]: the negative-log IC50 (pIC50) was above 5.30. In the case of `NC(=O)CC(c1ccc(-c2cn[nH]c2)cc1)c1ccc(Cl)c(Cl)c1` (centres unmarked) [Example 69, 3-(3,4-Dichloro-phenyl)-3-[4-(1H-pyrazol-4-yl)-phenyl]-propionamide], the pIC50 is above 6.00.
